Read-outs that look alike come from different tables or passages of the source.
Key:
rats = settings: icv administration; cited from earlier work
Y2 receptors [1] = biological target: T1, Y2 receptors (Homo sapiens, UniProt P49146); experiment: [35S]GTPγS binding assay in KAN-Ts cells (inhibition of PYY-stimulated binding); format: biochemical; settings: KAN-Ts membranes
T1 construct: endogenous in cells; host or cells: KAN-Ts cells (membranes)
T1 sequence (P49146 1-381): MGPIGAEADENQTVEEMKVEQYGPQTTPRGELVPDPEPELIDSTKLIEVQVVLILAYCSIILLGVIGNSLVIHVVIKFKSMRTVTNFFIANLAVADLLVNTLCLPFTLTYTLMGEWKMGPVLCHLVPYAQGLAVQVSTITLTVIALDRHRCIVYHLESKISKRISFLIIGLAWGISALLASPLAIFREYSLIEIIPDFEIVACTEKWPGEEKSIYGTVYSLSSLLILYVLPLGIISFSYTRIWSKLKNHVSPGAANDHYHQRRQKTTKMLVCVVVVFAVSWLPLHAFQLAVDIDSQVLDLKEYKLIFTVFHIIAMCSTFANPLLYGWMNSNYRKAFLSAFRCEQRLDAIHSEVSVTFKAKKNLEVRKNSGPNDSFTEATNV
Experimental: [^35S] GTPγS binding assay in KAN-Ts cells
Membranes from KAN-Ts cells were prepared as described above. Membranes were thawed on ice and diluted in 50 mM Tris-HCl buffer, pH 7.4 containing 10 mM MgCl2, 1 mM EDTA, 100 mM NaCl, […], 0.25% BSA. Assay mixture ([…]) were preincubated with compounds for 30 min at rt. Then, […] of [^35S]GTPγS in assay buffer was added to a final concentration of 200 pM and the assay mixtures were incubated for 1 h at rt. Reactions were terminated by rapid filtration thought GF/C filters. Filters were washed twice with ice cold 50 mM Tris-HCl, pH 7.4 containing 10 mM MgCl2. Basal [^35S]GTPγS was measured in the absence of compounds. In initial experiments, nonspecific binding was measured in the presence of […]. This nonspecific binding never exceeded 10% of basal binding and was thus not subtracted from experimental data. Stimulation of [^35S]GTPγS is presented as percentage over basal and was calculated as one hundred times the difference between stimulated and basal binding (in cpm). […] EC50 (concentration of compound at which 50% of its own maximal stimulation is obtained) and IC50 (concentration of its own maximal inhibition of PYY-stimulated [^35S]GTPγS binding is obtained) were derived from the curves. IC50 values were corrected as follows: corrected IC50 (IC50corr)=IC50/(1+[PYY]/EC50 (PYY)) and pIC50corr=−log IC50corr.

Y2 receptors [2] = biological target: T1, Y2 receptors; experiment: Radioligand binding assay ([125I]PYY, KAN-Ts cell membranes); settings: average of results, read-out: IC50
Outline: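 IC50 values are means of three to eight experiments run in duplicate, fitted sigmoidally against specific binding (defined by […]). Competition used 80 pM [^125I]PYY for 1 h at room temperature on KAN-Ts membranes carrying native Y2, with filtration and scintillation counting.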

IC50 (Y2 receptors [2]; Table 2, [125I]PYY 80 pM) [nM] | SMILES | further results
 | N=C(N)NCCC[C@H](NC(=O)CC1(CC(=O)N2CCN(C3c4ccccc4NC(=O)c4ccccc43)CC2)CCCC1)C(=O)NCCn1c(=O)n(-c2ccccc2)n(-c2ccccc2)c1=O (stereo partly drawn) [BIIE0246] | ethanol self-administration (rats): dose dependently reduced ethanol self-administration
 | CCNC(=O)C(c1ccccc1)C1CCN(c2ccc(NC(=O)Nc3c(C)noc3C)cc2F)CC1 (stereo not drawn) [Example 10, 2-(1-{4-[3-(3,5-Dimethyl-isoxazol-4-yl)-ureido]-2-fluoro-phenyl}-piperidin-4-yl)-N-ethyl-2-phenyl-acetamide] | functional behaviour in [35S]GTPγS assay (Y2 receptors [1]): antagonist; IC50 (Y2 receptors [2]; Table 1, [125I]PYY 80 pM): 15 nM
4300 | CCNC(=O)Cc1ccc(N2CCN(C(C(=O)N(CC)CC)c3ccccc3)CC2)c(F)c1 (stereo not drawn) [Example 290, N,N-Diethyl-2-[4-(4-ethylcarbamoylmethyl-2-fluoro-phenyl)-piperazin-1-yl]-2-phenyl-acetamide] | 
8700 | CCN(CC)C(=O)C(c1ccccc1)N1CCN(c2ccc(CC(=O)NC3CCCC3)cc2F)CC1 (stereo not drawn) [Example 291, 2-[4-(4-Cyclopentylcarbamoylmethyl-2-fluoro-phenyl)-piperazin-1-yl]-N,N-diethyl-2-phenyl-acetamide] | 
104 | CCC(CC)C(=O)Nc1ccc(N2CCN(C(C(=O)N(C)C)c3ccccc3)CC2)c(F)c1 (stereo not drawn) [Example 292, N-{4-[4-(Dimethylcarbamoyl-phenyl-methyl)-piperazin-1-yl]-3-fluoro-phenyl}-2-ethyl-butyramide] | 
